Measured values: patent publication EP4755890A1, “OXO-TRICYCLIC DERIVATIVE AND PHARMACEUTICAL USE THEREOF” (Haisco Pharmaceutical Group Co., Ltd., priority 2023, dated 2025)

How the values were obtained:
SW48 cells = experiment: SW48 cell proliferation inhibition assay (CellTiter-Glo); format: cell-based; settings: Homo sapiens, 96 h, 4 days, read-out: Inhibitory activity against SW48 cell proliferation IC50
Method: The culture conditions for SW48 cells were as follows: Leibovitz L15 + 10% FBS + 1% penicillin-streptomycin, and the cells were cultured in an incubator without CO2 at 37°C. On the first day, the SW48 cells in the exponential growth phase were collected and plated in 96-well cell culture plates at a density of 1000 cells/well (180 µL/well). The plates were cultured overnight in an incubator without CO2 at 37°C. T0 wells were plated simultaneously during the plating process. The next day, 20 µL of compounds at different concentrations were added to each well (nine compound concentration gradients, one DMSO well, and one blank well; each compound concentration was plated in triplicate), and the final concentration of DMSO in each well was 0.1%. The plates were cultured in an incubator without CO2 at 37°C for 4 days. On the same day of compound addition, the T0 plate was detected using the CellTiter-Glo Kit, and the detected value was recorded as RLU0. After the culture was completed, 100 µL of detection solution (Cell Viability Assay, Promega) was added to each well. The plates were incubated at room temperature for 10 minutes with slow shaking. The chemiluminescence reading was read using a BMG microplate reader (PHERAstar FSX). The results were processed according to Formula (5) to calculate the proliferation inhibition rate of compounds at each concentration. Curve fitting was performed via a four-parameter logistic model using GraphPad Prism software, and the GI50 value (the concentration of the compound when the proliferation inhibition rate was 50%) was calculated. In the formula, RLUcompound is the readout of the drug-treated group, RLUcontrol is the average value of the compound vehicle control group, and RLUBlank is the average value of the blank control group. [formula] Table 3. Results of inhibitory activity of test compounds against cell proliferation

CYP2D6 = molecular target: T1, CYP2D6 (Homo sapiens, UniProt P10635); experiment: CYP450 enzyme activity inhibition assay, CYP2D6; format: in vitro ADME
T1 construct: co-incubated with human liver microsomes; from tissue; host or cells: human liver microsomes
T1 sequence (P10635 whole entry): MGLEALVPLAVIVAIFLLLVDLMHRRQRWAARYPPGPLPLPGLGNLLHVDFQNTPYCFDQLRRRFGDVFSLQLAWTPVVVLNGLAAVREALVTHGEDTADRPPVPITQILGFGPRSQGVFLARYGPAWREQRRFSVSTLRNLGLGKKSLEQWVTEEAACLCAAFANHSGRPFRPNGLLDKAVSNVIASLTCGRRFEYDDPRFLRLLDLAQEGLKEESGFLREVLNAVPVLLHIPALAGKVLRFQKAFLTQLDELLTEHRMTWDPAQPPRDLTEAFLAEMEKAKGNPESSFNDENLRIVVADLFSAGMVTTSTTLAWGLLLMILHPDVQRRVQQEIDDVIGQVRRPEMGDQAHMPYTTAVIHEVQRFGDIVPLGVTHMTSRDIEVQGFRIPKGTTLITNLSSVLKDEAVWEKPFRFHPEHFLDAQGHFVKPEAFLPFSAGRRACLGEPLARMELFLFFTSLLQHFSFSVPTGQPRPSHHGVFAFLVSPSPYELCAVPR
Method: (§1) The purpose of this study was to evaluate the effects of the test compounds on the activities of five isoenzymes (CYP1A2, CYP2C9, CYP2C19, CYP2D6, and CYP3A4) of human liver microsomal cytochrome P450 (CYP) using an in vitro testing system. The specific probe substrates for each CYP450 isoenzyme were co-incubated with human liver microsomes and the test compounds at different concentrations, and reduced nicotinamide adenine dinucleotide phosphate (NADPH) was added to initiate the reaction. After the reactions were completed, the samples were treated, and liquid chromatography-tandem mass spectrometry (LC-MS/MS) was used to quantitatively detect metabolites produced by the specific substrates. The changes in CYP enzyme activities were determined, and the IC50 values were calculated to evaluate the inhibitory potential of the test compounds against each CYP enzyme subtype.

CYP1A2 = molecular target: T2, CYP1A2 (Homo sapiens, UniProt P05177); experiment: CYP450 enzyme activity inhibition assay, CYP1A2; format: in vitro ADME
T2 construct: co-incubated with human liver microsomes; from tissue; host or cells: human liver microsomes
T2 sequence (P05177 1-516): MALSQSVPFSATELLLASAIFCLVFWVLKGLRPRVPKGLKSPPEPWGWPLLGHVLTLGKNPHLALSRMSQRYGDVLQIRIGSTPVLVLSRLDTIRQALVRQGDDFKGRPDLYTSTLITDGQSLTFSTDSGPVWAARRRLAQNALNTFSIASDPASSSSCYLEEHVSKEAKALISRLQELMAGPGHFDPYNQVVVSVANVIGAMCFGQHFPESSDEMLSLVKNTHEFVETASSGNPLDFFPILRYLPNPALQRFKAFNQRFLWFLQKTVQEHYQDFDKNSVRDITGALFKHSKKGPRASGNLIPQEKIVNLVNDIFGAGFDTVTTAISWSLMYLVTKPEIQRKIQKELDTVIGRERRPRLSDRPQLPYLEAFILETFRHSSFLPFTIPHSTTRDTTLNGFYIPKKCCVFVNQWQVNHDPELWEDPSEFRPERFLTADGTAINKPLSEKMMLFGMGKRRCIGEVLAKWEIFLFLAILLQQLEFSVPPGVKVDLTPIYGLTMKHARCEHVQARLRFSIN
Method: as §1

CYP2C19 = molecular target: T3, CYP2C19 (Homo sapiens, UniProt P33261); experiment: CYP450 enzyme activity inhibition assay, CYP2C19; format: in vitro ADME
T3 construct: co-incubated with human liver microsomes; from tissue; host or cells: human liver microsomes
T3 sequence (P33261 whole entry): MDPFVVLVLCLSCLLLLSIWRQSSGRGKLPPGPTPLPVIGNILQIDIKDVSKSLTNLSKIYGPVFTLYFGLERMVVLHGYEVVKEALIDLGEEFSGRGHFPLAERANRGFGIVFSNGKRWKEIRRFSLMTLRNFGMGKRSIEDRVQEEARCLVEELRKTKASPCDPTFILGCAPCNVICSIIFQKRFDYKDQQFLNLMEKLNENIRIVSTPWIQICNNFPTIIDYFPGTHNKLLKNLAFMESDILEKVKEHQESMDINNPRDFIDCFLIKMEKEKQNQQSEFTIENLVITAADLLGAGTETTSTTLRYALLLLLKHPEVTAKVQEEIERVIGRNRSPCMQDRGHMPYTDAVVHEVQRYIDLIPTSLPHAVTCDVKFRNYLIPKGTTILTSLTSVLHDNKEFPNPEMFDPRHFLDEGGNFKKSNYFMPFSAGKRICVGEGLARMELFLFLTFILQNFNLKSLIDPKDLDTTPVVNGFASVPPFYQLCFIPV
Method: as §1

CYP3A4 = molecular target: T4, CYP3A4 (Homo sapiens, UniProt P08684); experiment: CYP450 enzyme activity inhibition assay, CYP3A4; format: in vitro ADME
T4 construct: co-incubated with human liver microsomes; from tissue; host or cells: human liver microsomes
T4 sequence (P08684 whole entry): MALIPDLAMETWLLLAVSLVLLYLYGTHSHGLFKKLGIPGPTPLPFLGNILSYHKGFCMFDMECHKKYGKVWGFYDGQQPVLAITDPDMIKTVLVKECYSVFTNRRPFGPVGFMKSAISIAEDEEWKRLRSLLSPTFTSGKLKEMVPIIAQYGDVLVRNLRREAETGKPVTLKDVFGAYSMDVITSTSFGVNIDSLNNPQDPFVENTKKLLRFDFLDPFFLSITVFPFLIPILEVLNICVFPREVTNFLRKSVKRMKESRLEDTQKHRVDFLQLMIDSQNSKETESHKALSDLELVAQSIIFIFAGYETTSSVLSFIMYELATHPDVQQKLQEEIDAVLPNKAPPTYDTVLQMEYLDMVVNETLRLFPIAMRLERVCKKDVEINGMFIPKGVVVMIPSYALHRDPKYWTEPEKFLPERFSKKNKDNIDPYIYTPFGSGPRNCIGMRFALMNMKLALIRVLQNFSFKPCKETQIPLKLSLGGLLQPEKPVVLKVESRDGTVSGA
Method: as §1

CYP2C9 = molecular target: T5, CYP2C9 (Homo sapiens, UniProt P11712); experiment: CYP450 enzyme activity inhibition assay, CYP2C9; format: in vitro ADME
T5 construct: co-incubated with human liver microsomes; from tissue; host or cells: human liver microsomes
T5 sequence (P11712 whole entry): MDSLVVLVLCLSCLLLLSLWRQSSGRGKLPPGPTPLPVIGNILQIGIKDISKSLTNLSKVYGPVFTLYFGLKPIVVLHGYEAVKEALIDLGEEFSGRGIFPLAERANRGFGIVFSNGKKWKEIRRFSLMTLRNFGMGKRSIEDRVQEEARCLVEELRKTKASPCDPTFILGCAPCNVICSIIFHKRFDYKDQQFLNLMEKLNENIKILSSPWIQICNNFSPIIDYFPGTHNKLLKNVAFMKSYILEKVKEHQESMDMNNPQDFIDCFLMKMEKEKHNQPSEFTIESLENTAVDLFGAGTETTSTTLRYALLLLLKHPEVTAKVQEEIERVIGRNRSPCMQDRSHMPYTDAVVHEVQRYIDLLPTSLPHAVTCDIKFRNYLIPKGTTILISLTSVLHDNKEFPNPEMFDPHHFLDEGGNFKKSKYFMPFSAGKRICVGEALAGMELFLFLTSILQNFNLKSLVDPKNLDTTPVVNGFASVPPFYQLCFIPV
Method: as §1

[1] = molecular target: T6, WRN protein (AA N517-P1238, ICE, Cat. S2212T-H56HZ) (Homo sapiens, UniProt Q14191); experiment: Assay for WRN helicase activity (FORKF dsDNA unwinding, fluorescence); format: biochemical; settings: inhibition of WRN helicase activity; 10 nM WRN, 10 nM FORKF, 2 mM ATP
T6 construct: WRN protein (AA N517-P1238, ICE, Cat. S2212T-H56HZ); purchased ICE S2212T-H56HZ
T6 sequence (Q14191 517-1238, stated change not applied): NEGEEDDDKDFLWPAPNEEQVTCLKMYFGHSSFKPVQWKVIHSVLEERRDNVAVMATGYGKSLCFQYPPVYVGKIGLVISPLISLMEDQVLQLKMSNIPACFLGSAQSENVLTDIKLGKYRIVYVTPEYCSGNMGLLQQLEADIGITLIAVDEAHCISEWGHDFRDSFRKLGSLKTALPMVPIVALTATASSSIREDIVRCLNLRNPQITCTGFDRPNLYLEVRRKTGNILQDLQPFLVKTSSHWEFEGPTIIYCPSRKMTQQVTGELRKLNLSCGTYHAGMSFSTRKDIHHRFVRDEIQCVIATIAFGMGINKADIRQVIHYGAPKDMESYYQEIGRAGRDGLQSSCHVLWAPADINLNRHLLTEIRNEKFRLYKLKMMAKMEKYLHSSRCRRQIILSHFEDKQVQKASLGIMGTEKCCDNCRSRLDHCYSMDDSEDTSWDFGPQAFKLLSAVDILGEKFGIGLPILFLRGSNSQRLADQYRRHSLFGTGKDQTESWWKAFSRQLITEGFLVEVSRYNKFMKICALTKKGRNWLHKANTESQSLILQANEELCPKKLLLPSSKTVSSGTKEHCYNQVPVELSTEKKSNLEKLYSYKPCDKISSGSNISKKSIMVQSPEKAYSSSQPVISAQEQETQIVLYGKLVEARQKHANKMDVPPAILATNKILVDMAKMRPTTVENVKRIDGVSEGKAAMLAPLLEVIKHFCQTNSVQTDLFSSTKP
Method: The assay buffer working solution prepared with RNAase-free water was as follows: 25 mM Tris (pH 7.5), 2 mM MgCl2, 50 mM NaCl, 0.02% BSA, 0.01% Tween, and 1 mM DTT. WRN protein (AA N517-P1238, ICE, Cat. S2212T-H56HZ) was obtained through protein expression and purification in vitro. Two single-stranded DNAs were synthesized: […]-BHQ2 (quencher), and (fluorophore) TAMRA-[…]. dsDNA (FORKF) was obtained via annealing of the two single-stranded DNAs. When the WRN protein bound to FORKF, the dsDNA was unwound, exposing the fluorophore, thereby generating fluorescence. 2 µL of compounds at different concentrations and 4 µL of WRN protein were added to a 384-well black plate (Greiner, Cat#784075). The plate was pre-incubated at room temperature for 20 minutes. 2 µL each of ATP and the FORKF substrate were added. The working concentrations of the WRN protein, FORKF, and ATP were 10 nM, 10 nM, and 2 mM, respectively. The plate was incubated at room temperature for 20 minutes. After the incubation was completed, the fluorescence value was read at Ex 540 nm/Em 590 nm using a BMG microplate reader (PHERAstar FSX).
The inhibition rate was calculated according to Formula 2, where RLUsample is the readout of the compound well, RLUmax is the readout of the DMSO control well, and RLUmin is the readout of the control well without the WRN protein. Curve fitting was performed via a four-parameter logistic model using GraphPad Prism software, and the IC50 value (the concentration of the compound when the inhibition rate was 50%) was calculated. Inhibition% = (1−(RLUsample−RLUmin)/(RLUmax−RLUmin)) × 100% [formula] Table 2. Results of inhibitory activity of test compounds against WRN helicase activity

| Structure (SMILES) | IC50 (SW48 cells) [µM] | IC50 (CYP2D6) [µM] | IC50 (CYP1A2) [µM] | IC50 (CYP2C19) [µM] | IC50 (CYP3A4) [µM] | IC50 (CYP2C9) [µM] | IC50 [1] [µM] |
| --- | --- | --- | --- | --- | --- | --- | --- |
| Cc1ncnc(C(=O)N2CCN(c3c4n(c5nc(C6=CCOCC6)nn5c3=O)C(C(=O)Nc3ccc(C(F)(F)F)cc3Cl)CCC4)C[C@H]2C)c1O (single isomer, unassigned) [Compound 8-B] | < 0.1 | > 30 | > 30 | > 30 | > 30 | > 30 | < 0.02 |
| Cc1ncnc(C(=O)N2[C@@H](C)CN(c3c4n(c5nc(C6=CCOCC6)nn5c3=O)[C@@H](C(=O)Nc3ccc(C(F)(F)F)cc3Cl)CCC4)C[C@@H]2C)c1O [Compound 20-A] | < 0.1 | > 30 | > 30 | > 30 | > 30 | > 30 | < 0.02 |
| Cc1ncnc(C(=O)N2CCN(c3c4n(c5nc(C6=CCOCC6)nn5c3=O)[C@@H](C(=O)Nc3ccc(C(F)(F)F)cc3Cl)CCC4)CC2)c1O [Compound 1-B] | < 0.1 | > 30 | > 30 | > 30 | > 30 | > 30 | < 0.02 |
